This note sets out measurements from patent US20120302526A1, “METHODS FOR TREATING POST-TRAUMATIC STRESS DISORDER” (Regents of the University of Colorado, a body corporate, priority 2011, published 2012).

Assay [1] concerns TBI induced anxiety-like behavior (LFPI rats). Kind of assay: Freezing in a novel context after LFPI and foot shock, post-injury ibudilast (Example 1, FIG. 1). Type of assay: in vivo, Sprague-Dawley rats. The procedure: Twenty-four adult viral-free male Sprague-Dawley rats (275-325 g; Harlan Laboratories, Madison, Wis.) were housed in pairs in temperature (23±3° C.) and light (12:12 light:dark) controlled rooms with ad libitum access to food and water. All procedures were performed in accordance with University of Colorado Institutional Animal Care and Use Committee guidelines for the humane use of laboratory rats in biological research. Rats were randomly assigned to 1 of 4 groups (n=6/group; Sham-operated/vehicle-injected, Sham-operated/ibudilast-injected, LFPI/vehicle-injected, LFPI/ibudilast-injected). All rats were shocked approximately 2 weeks following LFPI to enhance freezing behavior in a novel context (a natural fear reaction in this species). After freezing behavior had been established (1 month post-injury) animals were subjected to a 5-day regimen of ibudilast or vehicle (corn oil) injections (once daily for 5 days). Freezing behavior was again assessed at 2 weeks, 1 month, 2 months, and at 3 months post-injection. Lateral Fluid Percussion Injury. LFPI rats were anesthetized with halothane (4% induction, 2.0-2.5% maintenance) and mounted in a stereotaxic frame. The lateral fluid percussion injury used in this study utilized a PV820 Pneumatic PicoPump (World Precision Instruments, Inc., Sarasota, Fla.) to deliver standardized pressure pulses of air to a standing column of fluid. A 3.0 mm diameter craniotomy was centered at 3 mm caudal to bregma and 4.0 mm lateral of the sagittal suture, with the exposed dura remaining intact. A female Luer-Loc hub (inside diameter of 3.5 mm) was secured over the craniotomy with cyanoacrylate adhesive. Following hub implantation, the animal was removed from the stereotaxic frame and connected to the LFPI apparatus. […] Weight was recorded prior to each dosing. […] Rats were tested (5 minutes) and the percent of freezing behavior was assessed. Freezing was defined as the absence of movement except for heart beat/respiration, and was recorded in 10 sec intervals. Statistical Analyses: Results are expressed as mean±SEM. […]

For assay [2] the test system is unchanged. Kind of assay: Freezing in shock chamber after fear conditioning, peri-injury ibudilast (Example 2, FIG. 2). The conditions noted are these: 10 mg/kg in corn oil, 5 days (2 days before LFPI, day of LFPI, 2 days after); 1 and 3 months post-injury. Type of assay: in vivo. How it is done:
All animals were fear conditioned by receiving shock (1.5 mA; 3-sec) immediately upon being placed in an experimental chamber. Freezing behavior was then measured the following day upon being replaced in the same chamber. Naïve (no surgical procedures) and Sham (LFPI surgery without pressure pulse) froze at a typical rate of approximately 15-20% when measured at 1 and 3 months post-injury (FIG. 2). In contrast, cohorts who received LFPI froze approximately 3 times as long at both time points.

The test system of assay [3] is TBI induced anxiety-like behavior (LFPI animals). Kind of assay: Freezing in a novel context, shock at 1 month post-injury, peri-injury MN166 (Example 3, FIG. 3B). Type of assay: in vivo, rats. The conditions noted are these: 10 mg/kg s.c. 5 days peri-injury. The source says:
Freezing behavior in rats was elicited substantially in the manner described before. When freezing behavior was made the dependent variable after placement in a novel context, large and stable differences between Naïve and LFPI animals were seen (FIG. 3). LFPI animals froze approximately 20-40% of the time compared to 5-10% for Naïve animals (FIG. 3A). Increased freezing behavior in LFPI compared to Naïve animals was significant at all time points (p<0.001). […] These animals included Naïve and LFPI groups as in FIG. 3A, but also LFPI+MN166 (Animals received a 5-day dosing regimen in which they received once-daily ibudilast injections 24 hr prior to LFPI, the day of surgery and LFPI, and 3 days following LFPI (10 mg/kg, 1 ml/kg subcutaneously in corn oil)) and a Sham surgery group. Overall, LFPI animals froze substantially more than Naïve, LFPI+MN166, and Sham groups at the 1, 2 and 3 month time points (p<0.001). Similar to the animals of FIG. 3A, at 2 weeks and 1 month post-injury, LFPI animals froze approximately 20-30% of the time in the novel context compared to approximately 5% for Naïve animals (p<0.001).

The test system is the same in assay [4]. Kind of assay: Freezing in test chamber after immediate shock, peri-injury MN166 (Example 3, FIG. 4B). Type of assay: in vivo, rats. The conditions noted are these: 1 and 3 months post-injury, untreated LFPI approximately 60% (p<0.003 and 0.0001). The source says: Animals with LFPI froze approximately 3-4 times longer (30-40%) than Naïve animals (<10%) when placed in the test chamber (FIG. 4A). […] However, LFPI animals froze substantially more (approximately 60%) after shock compared to LFPI animals receiving no shock (30-35%; p<0.001 and 0.003, respectively). […] LFPI animals consistently froze more than all other groups, at all time points, with or without shock. […] However, by 3 months this difference was no longer significant (p<0.493).

Molecules are shown by their SMILES.

Consider `CC(C)C(=O)c1c(C(C)C)nn2ccccc12` [Ibudilast, 2-Methyl-1-[2-(1-methylethyl)pyrazolo[1,5-a]pyridin-3-yl]-1-propanone], for which the “freezing behavior of treated LFPI rats vs untreated LFPI rats” value in assay [1] (LFPI rats, 10 mg/kg s.c. once daily for 5 days at 1 month post-injury, up to 3 months post-treatment, p<0.01) is on record as “froze substantially less”. Besides, the “freezing compared to untreated injured animals” value in assay [1] (LFPI rats, 10 mg/kg s.c. once daily for 5 days, started 1 month post-injury, P<0.05) is on record as “about 60%”. Also, the “influence on freezing of control animals” value in assay [1] (Sham-operated rats, 10 mg/kg s.c. once daily for 5 days, all post-injection time-points) was “no influence on control animals”. Moreover, in assay [2], the “freezing behavior vs LFPI animals receiving vehicle injections” value is on record as “substantially less”. Besides, in assay [3] (3 months post-injury, untreated LFPI 50%, Naïve 8%, Sham 10%), the “percent freezing in novel context” value was found to be 14%. Besides, the “freezing compared to untreated LFPI animals, novel context” value in assay [3] (significant at 1, 2 and 3 months post-injury (p<0.01, 0.001, 0.0001)) is reported as “greatly reduced freezing”. Moreover, in assay [4], the “percent freezing in test chamber after shock” value is reported as 25-35%.
